Assay results taken from patent US20170003277A1 (priority 2015, published 2017).

Tests used:
[1] = system: mouse splenocytes; assay: Microarray gene expression of ex vivo activated splenocytes from GA-immunized mice (Copaxone, Natco, Escadra, Probioglat, Hangzhou, TV-5010); type: cell-based
Source text: After 3 days, the mice were sacrificed and cells from their spleens (splenocytes) were isolated because such cells are representative of, and commonly utilized as a gold standard to study the immune system.
Given the robustness of the model established in our first mouse splenocyte study, we sought to expand the scope of the investigation using the exact same study design, but with an expanded set of treatments (FIG. 1). In addition to comparing Copaxone® to a purported foreign generic version, we also sought to compare purported generics from various manufacturers to each other.
Extraction of total RNA from activated splenocytes was extracted using PerfectPure RNA Cultures CEKK kit 50 (5Prime GmbH, Hamburg, Germany) and following the manufacturer's instructions. RNA quality was assessed using the absorbance ratio at 260/280 nm and gel electrophoresis (Experion, Bio-Rad, Hercules, Calif., USA). Total RNA extracted from samples was hybridized to Illumina Mouse WG-6V2 microarray chips containing more than 45,200 transcripts.
Samples were randomized on the chips to avoid batch effects. Illumina's BeadStudio software was utilized for image processing, quantification of signal intensity per bead, and background signal correction. Multiple probes were analyzed for a given gene were averaged and batch correction was conducted using Partek. […]

[2] = Long-term animal toxicity studies of TV-5010; parameters: species or system rats and monkeys; details: in vivo
[3] = system: mouse splenocytes, THP-1 human monocyte cell line, PBMCs from MS patients; assay: Integrated analysis of genes modulated by Copaxone across mouse splenocytes, THP-1 human monocytes and MS patient PBMCs; details: human monocytes
Source text: Genome-wide expression profiles in cells from three different datasets in two different species (human, mouse) were studied. LIMMA was utilized to identify a genome-wide list of differentially expressed genes induced by GA in the primed and ex vivo stimulated mouse splenocytes, as well as in the THP-1 human monocyte cell line. Repeated-measures ANOVA was utilized to find a genome-wide list of genes modulated by GA in treated MS patients. Advanced enrichment algorithms were then applied to elucidate the pathways and cell types modulated by GA.
The genes modulated by GA treatment in multiple studies were examined for enrichment in particular immunological cell types.

In the case of glatiramer acetate [Copaxone®], the “IL1B expression, Copaxone compared with Natco purported generic” value ([1]; first mouse splenocyte study, adjusted p=0.043 by ANOVA) is reported as “significantly lower IL1B expression”, the “IL1B expression relative to medium” value ([1]; mouse splenocytes) is reported as “extremely effective in downregulating IL1B” and the “Toxicity in long-term animal studies” value [2] is reported as “never seen”. The “IL-10 gene expression in all 3 systems” value [3] was “Upregulated expression” and the “Number of genes modulated significantly by GA in all three studies” value [3] was 39.
